Source: EP4324928A1, “SYNTHETIC REAGENTS FOR ENZYME-CATALYSED ALKYLATION” (priority 2022, dated 2024)
Changes are numbered by the printed parent chain. Structures can show the parent of a compound that is named as a salt.

Legend:
AtHMT = target: T1, AtHMT (Arabidopsis thaliana, UniProt Q0WP12); test: Time-dependent methylation of SAH by HMT using dimethyl sulfate with or without sodium iodide (HPLC); type: biochemical; conditions: 1 mM SAH, 2 mM DMSa; efficient SAM production required 10 mM Nal
T1 construct: made in house; host or cells: E. coli Δmtn (DE3)
T1 sequence (Q0WP12 1-227): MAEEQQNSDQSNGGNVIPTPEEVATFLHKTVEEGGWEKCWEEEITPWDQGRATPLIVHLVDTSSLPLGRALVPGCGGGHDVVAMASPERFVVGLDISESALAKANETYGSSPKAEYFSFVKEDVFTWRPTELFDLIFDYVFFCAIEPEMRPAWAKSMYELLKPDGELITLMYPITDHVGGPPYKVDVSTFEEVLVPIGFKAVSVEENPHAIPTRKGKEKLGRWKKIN
Description: (§4) The given values are averages of three independent measurements. The associated error is less than 30 % of the average value. […] In addition, the reactions contained 50 mM sodium phosphate buffer (pH 8.0) and were incubated at 25 °C. The concentration of SAM was determined by HPLC. A) with 10 µM BxHMT; B) with 10 µM AtHMT. […] The concentration of SAM was determined by HPLC; B) Initial rates of these reactions were estimated from the slopes of linear-fit curves of the points at 1, 2 and 4 minutes.

bra = test: TPMT panel screen: SAM production from SAH with methyl donor (HPLC); type: biochemical, Brassica rapa chinensis; conditions: 2 mM DMSa, 1 mM SAH, 10 µM TPMT, 50 mM phosphate buffer pH 8.0, 25°C; barely exceeds uncatalyzed background
From the text: (§1) The inventors are not aware of any reports on SAM-dependent methyltransferases that transfer methyl groups from or to sulfates or sulfonates.^[18] […] To test this idea, the inventors assayed a panel of 13 distantly related TPMT homologs for the ability to produce SAM from SAH using DMSa, methyl methanesulfonate (MMSa), methyl toluenesulfonate (MeOTs) or methyl 4-nitrobenzenesulfonate (MeONs) as methyl donor. The proteins were produced in E. coli and purified following standard procedures . The activity of the enzymes was assayed in reactions containing 1 mM SAH, 50 mM phosphate buffer pH 8.0 and 2 mM of either methyl donor. The concentration of SAM after different incubation times (0.5- 24 h) was quantified by HPLC. […] In a nutshell, enzymes that have evolved to catalyze specific physiological reactions may have acquired - by chance - considerable activities for reactions they were never optimized for, while others - from the same enzyme family and with the same physiological function - may have not.

msm = test: as above; type: biochemical, Mycolicibacterium smegmatis; conditions: 2 mM DMSa, 1 mM SAH, 10 µM TPMT, 50 mM phosphate buffer pH 8.0, 25°C; barely exceeds uncatalyzed background
From the text: as §1

dsq = test: as above; type: biochemical, Dichomitus squalens; conditions: 2 mM DMSa, 1 mM SAH, 10 µM TPMT, 50 mM phosphate buffer pH 8.0, 25°C; complete conversion within 0.5 h
From the text: as §1

nba = test: as above; type: biochemical, Nitrospinae bacterium; conditions: 2 mM DMSa, 1 mM SAH, 10 µM TPMT, 50 mM phosphate buffer pH 8.0, 25°C; barely exceeds uncatalyzed background
From the text: as §1

bma = target: T2, bma (Batis maritima, UniProt Q9ZSZ7); test: as above; type: biochemical; conditions: 2 mM DMSa, 1 mM SAH, 10 µM TPMT, 50 mM phosphate buffer pH 8.0, 25°C; barely exceeds uncatalyzed background
T2 construct: Leu-Glu-His6 (C); made in house; host or cells: E. coli Δmtn (DE3)
T2 sequence (Q9ZSZ7 1-230): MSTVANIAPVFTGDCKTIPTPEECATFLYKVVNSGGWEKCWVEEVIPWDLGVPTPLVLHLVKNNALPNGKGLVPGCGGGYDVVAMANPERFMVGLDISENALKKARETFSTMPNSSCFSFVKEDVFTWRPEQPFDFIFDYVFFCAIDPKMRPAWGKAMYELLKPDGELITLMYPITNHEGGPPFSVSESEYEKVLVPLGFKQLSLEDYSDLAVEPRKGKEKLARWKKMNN
From the text: as §1

BxHMT = test: Time-dependent methylation of SAH by HMT using dimethyl sulfate with or without sodium iodide (HPLC); type: biochemical, Paraburkholderia xenovorans; conditions: 1 mM SAH, 2 mM DMSa, 0.1, 1.0 or 10 mM Nal (same efficiency without Nal), 50 mM phosphate buffer pH 8, within two hours
Description: as §4

[1] = Stability test of methyl donors in phosphate buffer (1H NMR, hydrolysis and phosphorolysis); conditions: pH 8.4
Description: These solutions were monitored by ^1H NMR at time points between 0.5 to 24 hours to quantify the products of hydrolysis and phosphorolysis. The ^1H NMR signal peaks of all methyl species were integrated and the ratio of them was calculated. The percentage of methyl donor was plotted against time and the graph was fitted with exponential decay model to calculate the half-life of the methyl donor.

dba = test: TPMT panel screen: SAM production from SAH with methyl donor (HPLC); type: biochemical, Dehalococcoidia bacterium; conditions: 2 mM DMSa, 1 mM SAH, 10 µM TPMT, 50 mM phosphate buffer pH 8.0, 25°C; barely exceeds uncatalyzed background
From the text: as §1

mac = test: as above; type: biochemical, Methanosarcina Acetivorans; conditions: 2 mM DMSa, 1 mM SAH, 10 µM TPMT, 50 mM phosphate buffer pH 8.0, 25°C; barely exceeds uncatalyzed background
From the text: as §1

acl = test: as above; type: biochemical, Aspergillus clavatus; conditions: 2 mM DMSa, 1 mM SAH, 10 µM TPMT, 50 mM phosphate buffer pH 8.0, 25°C; complete conversion within 0.5 h
From the text: as §1

AtHMT Val140 to Thr = target: T3, AtHMT Val140 to Thr (Arabidopsis thaliana, UniProt Q0WP12, V140T); conditions: previous study; cited from earlier work
T3 sequence (Q0WP12 1-227 V140T): T1 sequence (Q0WP12 1-227) with V140T

[2] = rats; cited from earlier work
AtHMTV140A = target: T4, AtHMTV140A (Arabidopsis thaliana, UniProt Q0WP12, V140A); test: Time-dependent methylation of SAH with methyl iodide, initial rates, mutant versus AtHMT (HPLC); type: biochemical; conditions: 1 µM enzyme, 1 mM SAH, 2 mM Mel, 50 mM sodium phosphate buffer pH 8.0, 25 °C
T4 construct: made in house; host or cells: E. coli Δmtn (DE3)
T4 sequence (Q0WP12 1-227 V140A): T1 sequence (Q0WP12 1-227) with V140A

TBU = test: TPMT-catalyzed SAH methylation using dimethyl sulfite as methyl group donor (HPLC); type: biochemical; conditions: after 20-hour incubation
From the text: (§2) Dimethyl sulfite (Me2SO3) is used as an additive in some polymers to prevent oxidation. It is much less toxic than dimethyl sulfate and can be considered as a potential methyl group donor. Herein, the inventors performed SAH methylation with dimethyl sulfite (Figure 9).

TPMT acl = test: as above; type: biochemical, Aspergillus clavatus; conditions: after 20-hour incubation
From the text: as §2

TPMT uma = test: as above; type: biochemical, Ustilago maydis; conditions: after 20-hour incubation
From the text: as §2

TPMT kal = test: TPMT-catalyzed SAH alkylation using ethylene sulfate as alkyl group donor (HPLC); type: biochemical, Kordia algicida
From the text: (§3) Ethylene sulfate (C2H4SO4) is a two carbon-unit cyclic sulfate. The inventors also used ethylene sulfate to perform SAH alkylation (Figure 7).

physchem = type: physicochemical; conditions: buffer, pH 8
Description: Ethylene sulfate (C2H4SO4) is a two carbon-unit cyclic sulfate. The inventors also used ethylene sulfate to perform SAH alkylation (Figure 7). A new peak with retention time at 15.7 minutes could be detected by HPLC in the reactions with about half number of TPMTs, although the new peak has not been identified as the desired product. If the new peak is the target product, especially for TPMT kal, 37% of SAH was converted to SAM analog after 4-hour incubation. For TPMT CAK and ath_V140A, they also got over 20% yield of SAM analog. In my opinion, the inactivation of TPMT during the reaction was not the reason of relatively low yield of SAM analog. […] During the reaction, most of ethylene sulfate hydrolyzed so that there was not enough ethylene sulfate to alkylate SAH.

TPMT CAK = test: TPMT-catalyzed SAH alkylation using ethylene sulfate as alkyl group donor (HPLC); type: biochemical; conditions: new HPLC peak not identified as the desired product
From the text: as §3

ath_V140A = target: T5, ath_V140A (Arabidopsis thaliana, UniProt Q0WP12, V140A); test: as above; type: biochemical; conditions: new HPLC peak not identified as the desired product
T5 construct: made in house; host or cells: E. coli Δmtn (DE3)
T5 sequence (Q0WP12 1-227 V140A): T1 sequence (Q0WP12 1-227) with V140A
From the text: as §3

monoamine oxidase = conditions: background statement; cited from earlier work

COS(=O)(=O)OC [DMSa, dimethyl sulfate]
acceptance of DMSa as substrate (AtHMT): not a direct substrate | rate (bra): < 0.01 min⁻¹ | rate (msm): < 0.01 min⁻¹ | rate (dsq): > 3 turnover min^-1 | rate (nba): < 0.01 min⁻¹ | rate (bma): < 0.01 min⁻¹ | SAH converted to SAM (BxHMT): 60 - 70% | half-life ([1]; buffer): 0.97 ± 0.05 h | half-life [1]: 0.95 ± 0.07 h | rate (dba): < 0.01 min⁻¹ | rate (mac): < 0.01 min⁻¹ | rate (acl): > 3 turnover min^-1

COS(C)(=O)=O [MMSa, methyl methanesulfonate]
half-life ([1]; buffer): 34 ± 1 h | half-life [1]: 28 ± 4 h

COS(=O)(=O)c1ccc([N+](=O)[O-])cc1 [MeONs, methyl 4-nitrobenzenesulfonate]
half-life ([1]; buffer): 3 ± 0.1 h

COS(=O)(=O)c1ccc(C)cc1 [MeOTs, methyl 4-toluenesulfonate]
half-life ([1]; buffer): 26 ± 1 h | half-life [1]: 21 ± 3 h

CI [Mel, methyl iodide]
catalytic efficiency for Mel reduced (Val140 to Thr) (AtHMT Val140 to Thr): 6 fold | LD50 [2]: 76 mg/kg | activity for Mel diminished (Val140 to Ala versus AtHMT) (AtHMTV140A): 7 fold

COS(=O)OC [dimethyl sulfite, Dimethyl sulfite]
yield of SAM (TBU): 7% | yield of SAM (TPMT acl): 14% | yield of SAM (TPMT uma): 8%

O=S1(=O)OCCO1 [ethylene sulfate, Ethylene sulfate]
yield of SAM analog (TPMT kal; 1 mM SAH, 1 mM ethylene sulfate added every half an hour, after 3-hour incubation): 60% | SAH converted to SAM analog (TPMT kal; ethylene sulfate as donor, after 4-hour incubation, new HPLC peak not identified as the desired product): 37% | half-life (physchem): 0.183 h | yield of SAM analog (TPMT CAK): over 20% | yield of SAM analog (ath_V140A): over 20%

C[C@H](NCc1ccc(OCc2cccc(F)c2)cc1)C(N)=O [safinamide]
increased potency by addition of a single methyl group (monoamine oxidase): 20 fold | increased selectivity by addition of a single methyl group (monoamine oxidase): ~1000 fold
